Article PMC10925993, “6-Aryl-4-cycloamino-1,3,5-triazine-2-amines: synthesis, antileukemic activity, and 3D-QSAR modelling” (RSC Advances, 2024)
“Also recorded” adds a separate entry of the source. Where two headings read alike, the source gives them in different places.

Experiments:
Jurkat T cells [1] = test: Antiproliferative screening at 10 μM, MTS assay; assay type: cell-based, human; conditions: Homo sapiens; Jurkat T cells, 10 μM, 72 h after treatment, MTS; mean of three independent experiments; read-out: Cell viability (%)
Method in brief: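 Jurkat cells at 2 × 10^3 per well were grown 24 h, then exposed to compound for 72 h. Viability came from MTS absorbance at 490 nm relative to vehicle-treated wells. GI50 was derived from sigmoidal concentration-response curves.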

Jurkat T cells [2] = test: Inhibition of Jurkat T cell growth (GI50), MTS assay; assay type: cell-based; conditions: Homo sapiens
Experimental: These compounds were selected for further testing to estimate their 50% growth inhibition (GI50) value. Standard antileukemic drugs mercaptopurine, methotrexate and cytarabine were chosen as positive controls.
An MTS (3-(4,5-dimethylthiazol-2-yl)-5-(3-carboxymethoxyphenyl)-2-(4-sulfophenyl)-2H-tetrazolium inner salt) assay[20] was used to assess the leukemic cell viability. Jurkat T cells (human leukemic T cell, clone E6-1) from American Type Culture Collection (ATCC) were cultured in RPMI-1640 medium (Nacalai Tesque, Japan) supplemented with 10% v/v fetal bovine serum (FBS) (Biosera, France). The cells were maintained at 37 °C in a humidified 5% CO2 incubator (Thermo Fisher, USA). A total of 2 × 10^3 cells per 100 μL cell culture media were seeded into each well of a 96-well plate and incubated for 24 h. Then, tested compounds or reference drugs [6-mercaptopurine (Merck Millipore, Germany), methotrexate (Merck Millipore, Germany) and cytarabine (Merck Millipore, Germany)] were added, followed by incubation for 72 h. After that, a mixture of MTS (Sigma Aldrich, USA) and phenazine methosulfate (PMS) (Nacalai Tesque, Japan) were added to each well, followed by another incubation for 1 h to 4 h at 37 °C. The absorbance in each well was measured at 490 nm using a microplate reader (Tecan NanoQuant Infinite M200 Pro, Austria). The percentage of cell viability was estimated by comparing absorbance in wells with the treated and untreated (vehicle control) cells using the following formula: ODtreated/ODuntreated × 100%. All experiments were performed in triplicate and repeated in three independent experiments. The GI50 values were calculated using sigmoidal concentration-response curves generated by the GraphPad Prism 8 program.[21]

Jurkat T cells [3] = test: AO/PI double fluorescence staining, cell morphology study; assay type: cell-based, human; conditions: treatment at GI50 concentration, 24 h, 48 h, 72 h
Experimental: The GI50 value for this compound was selected as the treatment concentration. […] Moreover, some Jurkat T cells underwent late stages of apoptosis as shown by the reddish-orange stain (Fig. 4C). Similar events also occurred 48 h and 72 h after the treatment but with a lower number of viable cells (Fig. 4D and E).
Fluorescence microscopy was applied to portray apoptotic and necrotic changes in Jurkat T cells using AO/PI fluorescence staining.[23] The Jurkat T cells were cultured as described above. A total of 5 × 10^5 cells (based on the doubling time for the cell line) per 1 mL cell culture media were seeded into each well of a 6-well plate (Biologix, USA) and incubated for 24 h. […] The fluorescence dye containing AO (10 μg mL^−1, 16 μL) and PI (10 μg mL^−1, 13 μL) was prepared immediately prior to use. The treated cells, positive and negative controls containing dyes were examined immediately under an inverted UV-fluorescent microscope (Nikon Ti2-E, Japan) to prevent fluorescence dyes from fading. The images of viable cells and non-viable cells after treatment were taken by Nikon Ti2-E software. The observations were repeated in three independent experiments.

[4] = concentration required to inhibit Jurkat T cell growth by 50%, 72 h, MTS, mean of three independent experiments, read-out: GI50 ± SEM

With `Nc1nc(-c2cccc(F)c2)nc(N2CCc3ccccc3C2)n1` [Compound 9{6,2}, 6-(3-Fluorophenyl)-4-(3,4-dihydroisoquinolin-2(1H)-yl)-1,3,5-triazine-2-amine] the viability at 10 µM (Jurkat T cells [1]) was 1%, the GI50 (Jurkat T cells [2]; GI50 against Jurkat T cells converted to negative logarithmic scale, read-out: Experimental pGI50 (converted)) was 1020 nM and the GI50 (Jurkat T cells [2]; [4]) was 1020 ± 300 nM. The “Jurkat T cell morphology, type of cell death (AO/PI staining)” value (Jurkat T cells [3]) was “necrotic type of cell death; also recorded: probably involved aponecrosis; also recorded: triggered the aponecrosis”.
For `CN(Cc1cnc2nc(N)nc(N)c2n1)c1ccc(C(=O)N[C@@H](CCC(=O)O)C(=O)O)cc1` [Methotrexate, methotrexate, reference compound], the GI50 (Jurkat T cells [2]; [4]) was 370 ± 30 nM and the “Jurkat T cell morphology, type of cell death (AO/PI staining)” value (Jurkat T cells [3]) was “induced the late apoptotic morphological changes”.
